Experiment: xn = mol fraction of the nth substance listed
Settings: Liquid, Pycnometric method

CCCCBr [1-bromobutane] + O=C=O
Settings | mass density [kg/m3]
332.4 K, 10370 kPa, x1 = 0.1495 | 915
332.4 K, 10440 kPa, x1 = 0.0461 | 587
332.4 K, 10440 kPa, x1 = 0.0683 | 677
332.4 K, 10510 kPa, x1 = 0.0989 | 783
332.4 K, 10520 kPa, x1 = 0.0461 | 595
332.4 K, 10560 kPa, x1 = 0.1495 | 918
332.4 K, 10570 kPa, x1 = 0.0683 | 686
332.4 K, 10590 kPa, x1 = 0.0461 | 603
332.4 K, 10650 kPa, x1 = 0.0989 | 788
332.4 K, 10710 kPa, x1 = 0.0683 | 694
332.4 K, 10720 kPa, x1 = 0.0461 | 615
332.4 K, 10750 kPa, x1 = 0.1495 | 921
332.4 K, 10820 kPa, x1 = 0.0989 | 793
332.4 K, 10870 kPa, x1 = 0.0683 | 703
332.4 K, 10880 kPa, x1 = 0.0461 | 627
332.4 K, 10940 kPa, x1 = 0.1495 | 924
332.4 K, 10990 kPa, x1 = 0.0989 | 798
332.4 K, 11050 kPa, x1 = 0.0683 | 712
332.4 K, 11070 kPa, x1 = 0.0461 | 640
332.4 K, 11120 kPa, x1 = 0.1495 | 927
332.4 K, 11180 kPa, x1 = 0.0989 | 804
332.4 K, 11240 kPa, x1 = 0.0683 | 721
332.4 K, 11270 kPa, x1 = 0.0461 | 654
332.4 K, 11310 kPa, x1 = 0.1495 | 930
332.4 K, 11390 kPa, x1 = 0.0989 | 808
332.4 K, 11460 kPa, x1 = 0.0683 | 730
332.4 K, 11510 kPa, x1 = 0.0461 | 668
332.4 K, 11530 kPa, x1 = 0.1495 | 933
332.4 K, 11600 kPa, x1 = 0.0989 | 814
332.4 K, 11720 kPa, x1 = 0.0683 | 739
332.4 K, 11730 kPa, x1 = 0.1495 | 936
332.4 K, 11780 kPa, x1 = 0.0461 | 683
332.4 K, 11830 kPa, x1 = 0.0989 | 819
332.4 K, 11970 kPa, x1 = 0.1495 | 939
332.4 K, 11980 kPa, x1 = 0.0461 | 689
332.4 K, 12000 kPa, x1 = 0.0683 | 749
332.4 K, 12060 kPa, x1 = 0.0989 | 825
332.4 K, 12190 kPa, x1 = 0.1495 | 942
332.4 K, 12220 kPa, x1 = 0.0461 | 703
332.4 K, 12330 kPa, x1 = 0.0461 | 708
332.4 K, 12330 kPa, x1 = 0.0683 | 759
332.4 K, 12330 kPa, x1 = 0.0989 | 830
332.4 K, 12450 kPa, x1 = 0.1495 | 945
332.4 K, 12620 kPa, x1 = 0.0989 | 836
332.4 K, 12650 kPa, x1 = 0.1495 | 948
332.4 K, 12670 kPa, x1 = 0.0683 | 770
332.4 K, 12920 kPa, x1 = 0.1495 | 951
332.4 K, 12930 kPa, x1 = 0.0989 | 842
332.4 K, 13080 kPa, x1 = 0.0683 | 780
332.4 K, 13170 kPa, x1 = 0.1495 | 954
332.4 K, 13250 kPa, x1 = 0.0989 | 847
332.4 K, 13470 kPa, x1 = 0.1495 | 958
332.4 K, 13540 kPa, x1 = 0.0683 | 791
332.4 K, 13600 kPa, x1 = 0.0989 | 853
332.4 K, 13750 kPa, x1 = 0.1495 | 961
332.4 K, 13980 kPa, x1 = 0.0989 | 859
332.4 K, 14040 kPa, x1 = 0.1495 | 964
332.4 K, 14050 kPa, x1 = 0.0683 | 802
332.4 K, 14320 kPa, x1 = 0.1495 | 967
332.4 K, 14360 kPa, x1 = 0.0989 | 865
332.4 K, 14630 kPa, x1 = 0.1495 | 970
332.4 K, 14640 kPa, x1 = 0.0683 | 814
332.4 K, 14810 kPa, x1 = 0.0989 | 871
332.4 K, 14910 kPa, x1 = 0.1495 | 973
332.4 K, 14960 kPa, x1 = 0.0683 | 820
332.4 K, 15090 kPa, x1 = 0.1495 | 975
335.9 K, 10180 kPa, x1 = 0.0683 | 589
335.9 K, 10200 kPa, x1 = 0.0683 | 591
335.9 K, 10210 kPa, x1 = 0.0683 | 593
335.9 K, 10240 kPa, x1 = 0.0683 | 597
335.9 K, 10250 kPa, x1 = 0.0683 | 601
335.9 K, 10310 kPa, x1 = 0.0683 | 607
335.9 K, 10380 kPa, x1 = 0.0683 | 614
335.9 K, 10450 kPa, x1 = 0.0683 | 620
335.9 K, 10540 kPa, x1 = 0.0683 | 627
335.9 K, 10610 kPa, x1 = 0.0683 | 634
335.9 K, 10700 kPa, x1 = 0.0683 | 641
335.9 K, 10790 kPa, x1 = 0.0683 | 649
335.9 K, 10940 kPa, x1 = 0.0683 | 660
335.9 K, 11140 kPa, x1 = 0.0683 | 672
335.9 K, 11350 kPa, x1 = 0.0683 | 684
335.9 K, 11590 kPa, x1 = 0.0683 | 697
335.9 K, 11870 kPa, x1 = 0.0683 | 710
335.9 K, 12340 kPa, x1 = 0.0683 | 728
335.9 K, 12930 kPa, x1 = 0.0683 | 747
335.9 K, 13690 kPa, x1 = 0.0683 | 767
335.9 K, 14350 kPa, x1 = 0.0683 | 783
335.9 K, 14890 kPa, x1 = 0.0683 | 794
335.9 K, 14990 kPa, x1 = 0.0683 | 797
335.9 K, 15110 kPa, x1 = 0.0683 | 800
337.4 K, 10000 kPa, x1 = 0.1495 | 872
337.4 K, 10190 kPa, x1 = 0.1495 | 876
337.4 K, 10210 kPa, x1 = 0.0461 | 479
337.4 K, 10240 kPa, x1 = 0.0989 | 714
337.4 K, 10260 kPa, x1 = 0.0461 | 482
337.4 K, 10290 kPa, x1 = 0.0989 | 717
337.4 K, 10310 kPa, x1 = 0.1495 | 879
337.4 K, 10340 kPa, x1 = 0.0461 | 492
337.4 K, 10360 kPa, x1 = 0.0989 | 722
337.4 K, 10430 kPa, x1 = 0.0461 | 502
337.4 K, 10430 kPa, x1 = 0.1495 | 881
337.4 K, 10440 kPa, x1 = 0.0989 | 726
337.4 K, 10520 kPa, x1 = 0.0989 | 730
337.4 K, 10540 kPa, x1 = 0.0461 | 513
337.4 K, 10580 kPa, x1 = 0.1495 | 884
337.4 K, 10590 kPa, x1 = 0.0989 | 735
337.4 K, 10660 kPa, x1 = 0.0461 | 524
337.4 K, 10690 kPa, x1 = 0.0989 | 739
337.4 K, 10690 kPa, x1 = 0.1495 | 887
337.4 K, 10790 kPa, x1 = 0.0461 | 537
337.4 K, 10790 kPa, x1 = 0.0989 | 743
337.4 K, 10810 kPa, x1 = 0.1495 | 889
337.4 K, 10890 kPa, x1 = 0.0989 | 748
337.4 K, 10910 kPa, x1 = 0.0461 | 549
337.4 K, 10970 kPa, x1 = 0.1495 | 893
337.4 K, 10990 kPa, x1 = 0.0989 | 752
337.4 K, 11060 kPa, x1 = 0.0461 | 563
337.4 K, 11100 kPa, x1 = 0.1495 | 895
337.4 K, 11130 kPa, x1 = 0.0989 | 757
337.4 K, 11230 kPa, x1 = 0.0461 | 577
337.4 K, 11240 kPa, x1 = 0.0989 | 762
337.4 K, 11250 kPa, x1 = 0.1495 | 898
337.4 K, 11370 kPa, x1 = 0.0461 | 588
337.4 K, 11370 kPa, x1 = 0.0989 | 766
337.4 K, 11420 kPa, x1 = 0.1495 | 901
337.4 K, 11510 kPa, x1 = 0.0461 | 599
337.4 K, 11520 kPa, x1 = 0.0989 | 771
337.4 K, 11580 kPa, x1 = 0.1495 | 904
337.4 K, 11680 kPa, x1 = 0.0461 | 611
337.4 K, 11680 kPa, x1 = 0.0989 | 776
337.4 K, 11740 kPa, x1 = 0.1495 | 906
337.4 K, 11830 kPa, x1 = 0.0989 | 781
337.4 K, 11860 kPa, x1 = 0.0461 | 623
337.4 K, 11920 kPa, x1 = 0.1495 | 909
337.4 K, 12010 kPa, x1 = 0.0989 | 786
337.4 K, 12070 kPa, x1 = 0.1495 | 912
337.4 K, 12080 kPa, x1 = 0.0461 | 636
337.4 K, 12200 kPa, x1 = 0.0989 | 791
337.4 K, 12280 kPa, x1 = 0.1495 | 915
337.4 K, 12320 kPa, x1 = 0.0461 | 649
337.4 K, 12390 kPa, x1 = 0.0989 | 796
337.4 K, 12490 kPa, x1 = 0.1495 | 918
337.4 K, 12580 kPa, x1 = 0.0461 | 663
337.4 K, 12620 kPa, x1 = 0.0989 | 801
337.4 K, 12680 kPa, x1 = 0.1495 | 921
337.4 K, 12850 kPa, x1 = 0.0989 | 806
337.4 K, 12890 kPa, x1 = 0.1495 | 924
337.4 K, 12910 kPa, x1 = 0.0461 | 674
337.4 K, 13110 kPa, x1 = 0.0989 | 812
337.4 K, 13130 kPa, x1 = 0.1495 | 927
337.4 K, 13260 kPa, x1 = 0.0461 | 693
337.4 K, 13320 kPa, x1 = 0.1495 | 930
337.4 K, 13360 kPa, x1 = 0.0989 | 817
337.4 K, 13530 kPa, x1 = 0.0461 | 703
337.4 K, 13550 kPa, x1 = 0.1495 | 933
337.4 K, 13650 kPa, x1 = 0.0989 | 822
337.4 K, 13770 kPa, x1 = 0.1495 | 936
337.4 K, 13920 kPa, x1 = 0.0989 | 828
337.4 K, 14020 kPa, x1 = 0.1495 | 939
337.4 K, 14220 kPa, x1 = 0.0989 | 833
337.4 K, 14300 kPa, x1 = 0.1495 | 942
337.4 K, 14530 kPa, x1 = 0.1495 | 945
337.4 K, 14570 kPa, x1 = 0.0989 | 839
337.4 K, 14750 kPa, x1 = 0.1495 | 948
337.4 K, 14880 kPa, x1 = 0.0989 | 844
337.4 K, 15050 kPa, x1 = 0.1495 | 951
337.4 K, 15220 kPa, x1 = 0.0989 | 850
337.9 K, 9120 kPa, x1 = 0.0245 | 280
337.9 K, 9150 kPa, x1 = 0.0245 | 283
337.9 K, 9220 kPa, x1 = 0.0245 | 288
337.9 K, 9290 kPa, x1 = 0.0245 | 292
337.9 K, 9370 kPa, x1 = 0.0245 | 297
337.9 K, 9440 kPa, x1 = 0.0245 | 303
337.9 K, 9520 kPa, x1 = 0.0245 | 308
337.9 K, 9600 kPa, x1 = 0.0245 | 314
337.9 K, 9680 kPa, x1 = 0.0245 | 320
337.9 K, 9750 kPa, x1 = 0.0245 | 325
337.9 K, 9830 kPa, x1 = 0.0245 | 331
337.9 K, 9920 kPa, x1 = 0.0245 | 338
337.9 K, 10000 kPa, x1 = 0.0245 | 345
337.9 K, 10080 kPa, x1 = 0.0245 | 352
337.9 K, 10180 kPa, x1 = 0.0245 | 359
337.9 K, 10270 kPa, x1 = 0.0245 | 367
337.9 K, 10360 kPa, x1 = 0.0245 | 375
337.9 K, 10450 kPa, x1 = 0.0245 | 383
337.9 K, 10560 kPa, x1 = 0.0245 | 391
337.9 K, 10620 kPa, x1 = 0.0245 | 397
337.9 K, 10630 kPa, x1 = 0.0245 | 399
